Reference: article PMC5712521, “Dendrogenin A drives LXR to trigger lethal autophagy in cancers” (Nature Communications, 2017)
Where two headings read alike, the source gives them in different places.

Legend:
Type in all cases: cell-based, human
[1] = test system: AML patient samples; test: Annexin-V/7AAD viability assay on AML patient samples (bulk and CD34+CD38−CD123+ progenitor/LSC); settings: for IC50: Homo sapiens, 48 h, panel of 61 AML patient samples
Procedure: The cytotoxic response to DDA of AML cells was determined by flow cytometry. Cells were exposed to DDA for 24 or 48 h then washed with cold phosphate-buffered saline (PBS) and resuspended in 200 µl of Annexin-V binding buffer. For the analysis of AML patient samples, cells were incubated with antibodies against the surface markers CD45-V450 (clone H130), CD34-PeCy7 (clone 8G12), CD38-APC (clone HB7) and CD123-PE (clone 9F5) (BD Pharmagen) before being resuspended in Annexin-V binding buffer. Annexin-V-fluorescein isothiocyanate (BD Pharmagen, clone 2331) and 7-aminoactinomycin D (7AAD) were then added, and the samples were incubated in the dark at room temperature for 15 min. The percentage of viable cells, Annexin-V-7AAD-negative cells, was scored using a flow cytometer.
(§1) AML patient and normal bone marrow samples were obtained from patients in the Hematology Department of Toulouse (France), after obtaining consent in accordance with the Declaration of Helsinki[67], and according to institutional guidelines. Samples were stored at the INSERM-1037 HIMIP collection (no. DC-2008-307-CPTP1 HIMIP). For some experiments, fresh leukemic blasts recovered at diagnosis were immediately treated with DDA. In other cases, frozen cells were thawed in IMDM medium with 20% FBS. Patient characteristics are shown in supplementary data 1. Normal bone marrow cells were subjected to Ficoll-Paque density gradient separation to isolate mononuclear cells, followed by CD34+ cell separation using high-gradient magnetic-activated cell sorting, according to the manufacturer’s manual. The in vivo assays were performed with cryopreserved cells.

[2] = test system: primary AML cells; test: Immunoblot densitometry in primary AML cells; settings: 5 µM DDA, 24 h
Procedure: (§2) Immunoblotting was carried out as described previously. Proteins were separated on SDS-PAGE gels, electro-transferred onto polyvinylidene difluoride membranes and incubated overnight at 4 °C with the following antibodies: anti-Atg3, anti-Atg5 (D1G9), anti-Atg7 (D12B11), anti-Beclin (D40C5), anti-caspase-3 (Cell Signaling), anti-Bcl-2 (Millipore), anti-Bax (Millipore), anti-LC3 (Sigma-Aldrich), anti-LXRα (SantaCruz), anti-LXRβ (SantaCruz), anti-Nur77 (Active motif), anti-NOR1 (R&D systems), anti-PARP (Cell Signaling), anti-Vps34 (Cell Signaling), or anti-Actin (Millipore). For visualization, an ECL plus kit (Amersham Biosciences) was used, and chemiluminescence was measured by autoradiography (Supplementary Fig. 9). Specific bands were quantified with ImageQuant software.
as §1, with “cells. […]” for “cells.”
All data or images are
representative of 3 independent experiments.

[3] = test system: AML cells; test: Immunoblot of caspase-3 and PARP in AML cells; settings: 24 h
Procedure: as §2
Supplementary Fig. 6. […]
AML cells treated with DDA for 24 h in the absence or presence of 50 µM z- VAD-fmk (a
caspase inhibitor). j Effect of z-VAD-fmk on DDA-induced c ytotox icit y in KG1 and HL60 cells. […]
Images are
representative of 3 independent experim ents.

SMILES: CC(C)CCC[C@@H](C)[C@H]1CC[C@H]2[C@@H]3C[C@@H](NCCc4cnc[nH]4)[C@@]4(O)C[C@@H](O)CC[C@]4(C)[C@H]3CC[C@]12C [DDA, Dendrogenin A]
- efficiency relative to cytarabine ([1]; AML bulk and progenitor/LSC (CD34+CD38−CD123+) subpopulation): 100 fold
- IC50 ([1]; read-out: median IC50, cell viability): 3.3 µM
- IC50 ([1]; read-out: range of IC50, cell viability): 1.2 to 11.3 µM
- LC3-II protein, densitometry relative to vehicle ([2]; AML#4): 3.4
- LXRβ protein, densitometry relative to vehicle ([2]; AML#4): 0.9
- NOR1 protein, densitometry relative to vehicle ([2]; AML#4): 2
- Nur77 protein, densitometry relative to vehicle ([2]; AML#4): 1.4
- LC3-II protein, densitometry relative to vehicle ([2]; AML#5): 3
- LXRβ protein, densitometry relative to vehicle ([2]; AML#5): 0.7
- NOR1 protein, densitometry relative to vehicle ([2]; AML#5): 2.2
- Nur77 protein, densitometry relative to vehicle ([2]; AML#5): 1.7
- cleaved PARP, densitometry ([3]; 5 µM DDA + 50 µM z-VAD-fmk): 1.9
- cleaved casp 3, densitometry ([3]; 5 µM DDA + 50 µM z-VAD-fmk): 0.5
- cleaved PARP, densitometry ([3]; 5 µM DDA, without z-VAD-fmk): 6.1
- cleaved casp 3, densitometry ([3]; 5 µM DDA, without z-VAD-fmk): 4.3
- cleaved PARP, densitometry ([3]; 10 µM DDA + 50 µM z-VAD-fmk): 6.1
- cleaved casp 3, densitometry ([3]; 10 µM DDA + 50 µM z-VAD-fmk): 0.8
- cleaved PARP, densitometry ([3]; 10 µM DDA, without z-VAD-fmk): 10.8
- cleaved casp 3, densitometry ([3]; 10 µM DDA, without z-VAD-fmk): 5.2
